Measurements as given in paper PMC3013619 (Cell host & microbe, 2009).

Target: T1, TgAPT (apicoplast phosphate translocator), TgAPT-N (Toxoplasma gondii, UniProt A7U554)
T1 sequence (A7U554 1-352): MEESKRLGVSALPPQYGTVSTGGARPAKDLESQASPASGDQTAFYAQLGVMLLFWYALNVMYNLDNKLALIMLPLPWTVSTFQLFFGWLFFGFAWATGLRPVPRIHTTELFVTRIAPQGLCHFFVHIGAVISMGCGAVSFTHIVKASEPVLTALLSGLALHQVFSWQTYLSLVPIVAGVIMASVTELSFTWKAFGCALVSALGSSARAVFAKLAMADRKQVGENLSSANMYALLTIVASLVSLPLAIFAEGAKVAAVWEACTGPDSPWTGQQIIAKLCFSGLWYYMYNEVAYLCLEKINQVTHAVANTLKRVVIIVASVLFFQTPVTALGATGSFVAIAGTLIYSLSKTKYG
Test: […]-Pi uptake into proteoliposomes, competitive inhibition
Format: biochemical
Settings: competitive with Pi; apparent; pH 7.6; reconstituted solubilized yeast membranes

| Compound | Kinetic constant ^d / TgAPT |
| --- | --- |
| O=C(O)[C@H](O)COP(=O)(O)O [3-PGA] | 1.33 ± 0.49 mM |
| C=C(OP(=O)(O)O)C(=O)O [PEP] | 1.65 ± 0.52 mM |
| triose phosphate | 1.63 ± 0.26 mM |
